The nature of the series: Particle size distribution of monoadipate salt particles. In kind it is physicochemical. The conditions noted are these: particles without milling or after wet milling. How it is done: The crude product was purified and milled as follows: After 4.02 Kg/Kg of anhydrous ethanol and 2.2 Kg/Kg of purified water were added into a reactor and stirred, the crude product obtained above was added to the mixture. The reaction mixture was heated to 65-70° C. and stirred until a clear solution was obtained. The recommended stirring time and rotation speed were 0.5-1 hour and 60-100 rpm, respectively. The reaction mixture was then cooled to 50-55° C. (target temperature: 53° C.) with a recommended cooling rate of 5-10° C./h. After 0.01 Kg/Kg of seed crystals of the compound of formula (5) adipate salt were added to the mixture at 50˜55° C., the mixture was stirred for 1˜3 hours (target: 2 hours) at this temperature. The reaction mixture was cooled down to 20-30° C. (target temperature: 25° C.) with recommended cooling rate of 5-10° C./h. After 8.4 Kg/Kg of purified water was slowly added to the mixture at 20-30° C. in 1-3 hours (target: 2 hours), the mixture was stirred for 1˜3 hours (target: 2 hours) at this temperature. The mixture was cooled to −5 to 5° C. (target temperature: 0° C.) at a cooling rate of 5 to 10° C./h, and stirred at this temperature for 4 to 8 hours (target: 6 hours). While maintaining the temperature at −5 to 5° C. (target temperature: 0° C.), the reaction mixture was passed through a wet mill (Blade no. 2, 6, and 6; rotation speed: 6,000-10,000 rpm, target: 8,000 rpm). Samples were taken every 20-30 minutes to measure the particle size of the solids after wet milling until D50 was no more than 45 μm (target: 35-45 μm). The reaction mixture was filtered through a filter with filter dryer sheath pre-cooled to T=−5˜5° C. The filter cake was washed with a mixture of 1.1 Kg/Kg of purified water and 0.39 Kg/Kg of anhydrous ethanol, which was pre-cooled to −5˜5° C. and maintain for at least 0.5 hour. The solid thus obtained was dried at 50˜60° C. in an oven under a controlled temperature of no more than 70° C. for 12 hours. Samples were taken every 4˜8 hours to track the residual ethanol and make sure the content of residual ethanol was no more than 0.4%. […]

On to “3-(4-((R)-2-aminopropoxy)phenyl)-N—((R)-1-(3-fluorophenyl)ethyl)imidazo[1,2-b]pyridazin-6-amine adipate salt [compound of formula (5) adipate salt]”, for which the “Particle size D10” value stood at 7.2 μm, the “Particle size D50” value came to 44 μm and the “Particle size D90” value was 107 μm.
